{"source": "paper PMC6422671", "about": "(British Journal of Clinical Pharmacology, 2019)", "key": {"[1]": {"assay": "Adverse event monitoring, phase I single dose", "experimental": "Safety assessments included adverse event (AE) monitoring, vital signs monitoring (systolic and diastolic blood pressure, pulse rate), electrocardiography, physical examinations and laboratory assessments (haematology, clinical chemistry and urinalysis).\nThe pharmacokinetic analysis set included all participants in the safety analysis set with evaluable pharmacokinetic data and no major protocol deviations. Analyses were performed using Statistical Analysis System (SAS) software, version 9.4. Descriptive statistics were not presented if there were fewer than 3 values available."}, "xanthine oxidase": {"system": "xanthine oxidase", "design": "method as in E Michaëlsson et al., manuscript in preparation", "details": "in vitro; ref E Michaëlsson et al., manuscript in preparation; cited from earlier work"}}, "note": "“Also recorded” adds a separate entry of the source.", "data": [{"smiles": "C[C@@H](N)c1cc(Cl)ccc1Cn1c(=S)[nH]c(=O)c2[nH]ccc21", "note": "[AZD4831]", "values": [{"measurement": "Any AE", "setting": "[1]; 5 mg fasted n = 6", "value": "2 (33.3) n (%)"}, {"measurement": "Epistaxis", "setting": "[1]; 5 mg fasted n = 6", "value": "0 n (%)"}, {"measurement": "Gastroenteritis", "setting": "[1]; 5 mg fasted n = 6", "value": "0 n (%)"}, {"measurement": "Headache", "setting": "[1]; 5 mg fasted n = 6", "value": "0 n (%)"}, {"measurement": "Nasopharyngitis", "setting": "[1]; 5 mg fasted n = 6", "value": "0 n (%)"}, {"measurement": "Oropharyngeal pain", "setting": "[1]; 5 mg fasted n = 6", "value": "1 (16.7) n (%)"}, {"measurement": "Rash maculopapular", "setting": "[1]; 5 mg fasted n = 6", "value": "0 n (%)"}, {"measurement": "Restlessness", "setting": "[1]; 5 mg fasted n = 6", "value": "1 (16.7) n (%)"}, {"measurement": "Rhinitis", "setting": "[1]; 5 mg fasted n = 6", "value": "0 n (%)"}, {"measurement": "Any AE", "setting": "[1]; 15 mg fasted n = 6", "value": "2 (33.3) n (%)"}, {"measurement": "Epistaxis", "setting": "[1]; 15 mg fasted n = 6", "value": "1 (16.7) n (%)"}, {"measurement": "Gastroenteritis", "setting": "[1]; 15 mg fasted n = 6", "value": "0 n (%)"}, {"measurement": "Headache", "setting": "[1]; 15 mg fasted n = 6", "value": "1 (16.7) n (%)"}, {"measurement": "Nasopharyngitis", "setting": "[1]; 15 mg fasted n = 6", "value": "0 n (%)"}, {"measurement": "Oropharyngeal pain", "setting": "[1]; 15 mg fasted n = 6", "value": "0 n (%)"}, {"measurement": "Rash maculopapular", "setting": "[1]; 15 mg fasted n = 6", "value": "0 n (%)"}, {"measurement": "Restlessness", "setting": "[1]; 15 mg fasted n = 6", "value": "0 n (%)"}, {"measurement": "Rhinitis", "setting": "[1]; 15 mg fasted n = 6", "value": "0 n (%)"}, {"measurement": "Any AE", "setting": "[1]; 45 mg fasted n = 6", "value": "3 (50.0) n (%)"}, {"measurement": "Epistaxis", "setting": "[1]; 45 mg fasted n = 6", "value": "0 n (%)"}, {"measurement": "Gastroenteritis", "setting": "[1]; 45 mg fasted n = 6", "value": "1 (16.7) n (%)"}, {"measurement": "Headache", "setting": "[1]; 45 mg fasted n = 6", "value": "2 (33.3) n (%)"}, {"measurement": "Nasopharyngitis", "setting": "[1]; 45 mg fasted n = 6", "value": "0 n (%)"}, {"measurement": "Oropharyngeal pain", "setting": "[1]; 45 mg fasted n = 6", "value": "0 n (%)"}, {"measurement": "Rash maculopapular", "setting": "[1]; 45 mg fasted n = 6", "value": "1 (16.7) n (%)"}, {"measurement": "Restlessness", "setting": "[1]; 45 mg fasted n = 6", "value": "0 n (%)"}, {"measurement": "Rhinitis", "setting": "[1]; 45 mg fasted n = 6", "value": "0 n (%)"}, {"measurement": "Any AE", "setting": "[1]; 45 mg fed n = 4", "value": "0 n (%)"}, {"measurement": "Epistaxis", "setting": "[1]; 45 mg fed n = 4", "value": "0 n (%)"}, {"measurement": "Gastroenteritis", "setting": "[1]; 45 mg fed n = 4", "value": "0 n (%)"}, {"measurement": "Headache", "setting": "[1]; 45 mg fed n = 4", "value": "0 n (%)"}, {"measurement": "Nasopharyngitis", "setting": "[1]; 45 mg fed n = 4", "value": "0 n (%)"}, {"measurement": "Oropharyngeal pain", "setting": "[1]; 45 mg fed n = 4", "value": "0 n (%)"}, {"measurement": "Rash maculopapular", "setting": "[1]; 45 mg fed n = 4", "value": "0 n (%)"}, {"measurement": "Restlessness", "setting": "[1]; 45 mg fed n = 4", "value": "0 n (%)"}, {"measurement": "Rhinitis", "setting": "[1]; 45 mg fed n = 4", "value": "0 n (%)"}, {"measurement": "Any AE", "setting": "[1]; 135 mg fasted n = 6", "value": "3 (50.0) n (%)"}, {"measurement": "Epistaxis", "setting": "[1]; 135 mg fasted n = 6", "value": "0 n (%)"}, {"measurement": "Gastroenteritis", "setting": "[1]; 135 mg fasted n = 6", "value": "0 n (%)"}, {"measurement": "Headache", "setting": "[1]; 135 mg fasted n = 6", "value": "1 (16.7) n (%)"}, {"measurement": "Nasopharyngitis", "setting": "[1]; 135 mg fasted n = 6", "value": "1 (16.7) n (%)"}, {"measurement": "Oropharyngeal pain", "setting": "[1]; 135 mg fasted n = 6", "value": "0 n (%)"}, {"measurement": "Rash maculopapular", "setting": "[1]; 135 mg fasted n = 6", "value": "1 (16.7) n (%)"}, {"measurement": "Restlessness", "setting": "[1]; 135 mg fasted n = 6", "value": "0 n (%)"}, {"measurement": "Rhinitis", "setting": "[1]; 135 mg fasted n = 6", "value": "0 n (%)"}, {"measurement": "Any AE", "setting": "[1]; 405 mg fasted n = 6", "value": "2 (33.3) n (%)"}, {"measurement": "Epistaxis", "setting": "[1]; 405 mg fasted n = 6", "value": "0 n (%)"}, {"measurement": "Gastroenteritis", "setting": "[1]; 405 mg fasted n = 6", "value": "0 n (%)"}, {"measurement": "Headache", "setting": "[1]; 405 mg fasted n = 6", "value": "0 n (%)"}, {"measurement": "Nasopharyngitis", "setting": "[1]; 405 mg fasted n = 6", "value": "0 n (%)"}, {"measurement": "Oropharyngeal pain", "setting": "[1]; 405 mg fasted n = 6", "value": "1 (16.7) n (%)"}, {"measurement": "Rash maculopapular", "setting": "[1]; 405 mg fasted n = 6", "value": "2 (33.3) n (%)"}, {"measurement": "Restlessness", "setting": "[1]; 405 mg fasted n = 6", "value": "0 n (%)"}, {"measurement": "Rhinitis", "setting": "[1]; 405 mg fasted n = 6", "value": "1 (16.7) n (%)"}, {"measurement": "maculopapular rash (moderate intensity), participants", "setting": "[1]; all participants receiving AZD4831", "value": "4/30"}, {"measurement": "maculopapular rash (moderate intensity), participants", "setting": "[1]; all participants receiving AZD4831, n = 30", "value": 13.3, "unit": "%"}, {"measurement": "duration of maculopapular rash", "setting": "[1]; in vivo", "value": "5 to 9", "unit": "days"}, {"measurement": "time of report of maculopapular rash after dosing", "setting": "[1]; in vivo", "value": "7 to 9", "unit": "days"}, {"measurement": "Any AE", "setting": "[1]; pooled AZD4831 fasted n = 30", "value": "12 (40.0) n (%)"}, {"measurement": "Epistaxis", "setting": "[1]; pooled AZD4831 fasted n = 30", "value": "1 (3.3) n (%)"}, {"measurement": "Gastroenteritis", "setting": "[1]; pooled AZD4831 fasted n = 30", "value": "1 (3.3) n (%)"}, {"measurement": "Headache", "setting": "[1]; pooled AZD4831 fasted n = 30", "value": "4 (13.3) n (%)"}, {"measurement": "Nasopharyngitis", "setting": "[1]; pooled AZD4831 fasted n = 30", "value": "1 (3.3) n (%)"}, {"measurement": "Oropharyngeal pain", "setting": "[1]; pooled AZD4831 fasted n = 30", "value": "2 (6.7) n (%)"}, {"measurement": "Rash maculopapular", "setting": "[1]; pooled AZD4831 fasted n = 30", "value": "4 (13.3) n (%)"}, {"measurement": "Restlessness", "setting": "[1]; pooled AZD4831 fasted n = 30", "value": "1 (3.3) n (%)"}, {"measurement": "Rhinitis", "setting": "[1]; pooled AZD4831 fasted n = 30", "value": "1 (3.3) n (%)"}, {"measurement": "serious AEs or deaths", "setting": "[1]; whole study", "value": "no serious AEs or deaths occurred"}, {"measurement": "inhibition of xanthine oxidase", "setting": "xanthine oxidase", "value": "does not inhibit; also recorded: is not a substrate or an inhibitor"}]}]}
